The conditions of series [1]: large Carbamoylcholine metabolite; cited from earlier work.
Series [2] concerns MECP2-KO neurons. Briefly: Calcium imaging of neurons. The format is cell-based, human. As to conditions: vs untreated KO. On the procedure:
(§1) Pharmacologic treatment. One-month old cortical organoids were treated for 1 mo with either Nefiracetam (10 μM) or PHA 543613 (10 μM) during media changes.
Calcium imaging. Calcium imaging was performed as described in Chailangkarn et al. Briefly, PSC-derived neuronal networks were lentivirally transduced with a Syn::RFP reporter construct. Cultures were washed with Krebs HEPES buffer and incubated with Fluo-4AM (Molecular Probes/Invitrogen, Carlsbad, Calif., USA). A Hamamatsu ORCA-ER digital camera (Hamamatsu Photonics, Japan) with 488 nm filter on an Olympus IX81 inverted fluorescence confocal microscope (Olympus Optical, Tokyo, Japan) acquired 5000 frames at 28 Hz in a 256×256 pixel region (100× magnification). Images were acquired with MetaMorph7.7 (MDS Analytical Technologies, Sunnyvale, Calif., USA) and analyzed with ImageJ and Matlab7.2 (Mathworks, Natick, Mass., USA). Syn::RFP+ neurons were selected following tetrodotoxin blockade of calcium transients. A 95th-percentile threshold of amplitude for calcium spikes was set for event detection; signal amplitude is presented as fluorescence change (ΔF/F) following background subtraction.

For series [3], the system named is MECP2-KO neurons. Briefly: Co-localized pre/postsynaptic puncta quantification in neurons. The format is cell-based, human. As to conditions: one-month old MECP2-KO neurons treated two weeks. Here is the method: as §1
Synaptic puncta quantification. Co-localized pre and postsynaptic puncta (Vglut and Homer1 immunostained) along MAP2-positive processes were quantified. Primary antibodies (see above) incubated 2 h, secondary antibodies incubated 1 h, and coverslips were mounted. Slides were analyzed under fluorescence microscopy.
Pharmacologic screening identifies two compounds that specifically reverse MECP2-KO phenotypes. 14 commercially available pharmacologic compounds with mechanisms of action that counteract the synapse and neurotransmitter pathologies were selected and which are identified in FIG. 5B. […] MECP2-KO and control neurons were treated with each of the 14 compounds and employed a tiered series of assays to identify those that could selectively rescue MECP2-KO pathology without affecting controls. […] The capacity of these compounds to increase pre and post co-localized synaptic puncta in MECP2-KO neurons were evaluated, again eliminating the drugs that affected control neurons (see FIG. 5F-G, and FIG. 6C-D).

On to `C[N+](C)(C)CCOC(N)=O` [Carbamoylcholine], for which, in series [1], the gastrointestinal absorption result is “limited gastrointestinal absorption” and the “traversal of the blood-brain barrier” value is on record as “cannot traverse the blood-brain barrier”.
Take `CC(=O)NCCCS(=O)(=O)O` [Acamprosate]: in the series on MECP2-KO neurons [2], the “frequency of calcium oscillations” value is “increases” and the “percentage of active neurons” value is listed as “increases”. The “synaptogenesis / co-localized synaptic puncta” value in the series with MECP2-KO neurons [3] was “specifically increased synaptogenesis”.
